{"source": "patent US6900194B1", "about": "“Use of substituted 4-biarylbutyric and 5-biarylpentanoic acid derivatives as matrix metalloprotease inhibitors for the treatment of respiratory diseases” (Bayer Aktiengesellschaft, priority 1998, dated 2005)", "key": {"[1]": {"target": "T1, MMP-12 (Macrophage Elastase) (Homo sapiens, UniProt P39900)", "T1 construct": "made in house; host or cells: E. coli BL21 (DE3)", "T1 sequence (P39900 106-470)": "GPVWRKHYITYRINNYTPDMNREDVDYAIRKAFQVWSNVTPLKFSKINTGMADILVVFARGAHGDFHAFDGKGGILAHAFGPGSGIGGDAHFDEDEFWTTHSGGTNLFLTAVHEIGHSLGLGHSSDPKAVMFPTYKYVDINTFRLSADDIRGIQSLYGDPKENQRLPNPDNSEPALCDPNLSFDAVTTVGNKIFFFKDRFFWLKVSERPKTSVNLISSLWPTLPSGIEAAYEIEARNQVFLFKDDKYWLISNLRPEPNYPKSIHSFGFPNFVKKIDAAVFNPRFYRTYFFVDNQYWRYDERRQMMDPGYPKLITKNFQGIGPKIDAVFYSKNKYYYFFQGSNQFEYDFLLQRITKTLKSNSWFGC", "assay": "P218 quenched fluorescence assay, MMP-12", "format": "biochemical", "conditions": "human; read-out: Potency Ki vs. MMP-12", "from_the_text": "(§1) P218 Quenched Fluorescence Assay for MMP Inhibition:\n(§2) This assay is adapted from the one described by Knight et al., FEBS Letters, 296, 263-266 (1992) for MMP-3 and a related substrate. The rate of hydrolysis of the synthetic substrate H-MCA-Pro-Lys-Pro-Leu-Ala-Leu-DPA-Ala-Arg-NH2 (P218) by the respective MMPs is monitored fluorometrically, using an excitation wavelength of 340 nm and an emission wavelength of 395 nm, in the presence or absence of the test compounds. The substrate is made up initially in 100% DMSO to a concentration of 1×10^−2 M, then diluted in assay buffer to a final concentration of 20 μM. Test compounds (10 mM in DMSO) are diluted in assay buffer at an initial concentration of 0.3-1000 nM. These are diluted to a final concentration in the assay from 0.03 nM to 100 nM. The reaction is initiated by the addition of substrate at a final concentration of 20 μM. The total assay volume in a 96 well microtitre plate is 150 μl, Cleavage of the substrate between the Leu-Ala residues allows the fluorescence of the MCA group to be detected on a fluorometer (Cytofluor II) following excitation at 340 nm and emission at 395 nm. Change in fluorescence is continually monitored for a 40 min period.\n(§3) The Ki's are calculated using the method described by Williams and Morrison, Methods in Enzymology, 63, 437-467 (1979) to measure Ki apparent for tight binding inhibitors, and is summarised as follows: [I]0/(1−vi/v0)=Ki apparent ×vi/v0+[E]0 [I]0 and [E]0 are inhibitor and enzyme concentrations, and vi/v0 are reaction velocities with/without inhibitor. [I]0 is equal to IC50 when vi is half v0, so that: IC50=0.5×[E]0+Ki apparent\nIC50's are determined at each enzyme concentration using Xlfit software. Ki apparent is then determined graphically from the plot of IC50 versus MMP concentration, using the intercepts to estimate Ki apparent. Thus, intercept values at IC50=0 and [E]0=0 are equal to −2×Ki apparent and Ki apparent, respectively. IC50 values are calculated using % inhibition values at each enzyme concentration, ensuring data is taken from the linear part of the reaction rate curves. The Ki can then be calculated from the equation: Ki=Ki apparent/[…] where S=substrate concentration and Km=dissociation constant.\nThe assay conditions are modified as follows for each of the MMPs used:\nMMP-12 (Macrophage Elastase)\n[…] is isolated according to the following procedure: Human GenePool cDNA libraries from human lung, spleen, and brain were obtained from Invitrogen (Groningen, The Netherlands). HPLC-purified oligonucleotides were purchased from BioTez (Berlin, Germany), E. coli strain DH5α from Life Technologies (Heidelberg, Germany), strain BL21(DE3) from Novagen (Heidelberg, Germany). Pfu DNA-Polymerase and pBlueScriptII-KS(+) were from Stratagene (Heidelberg, Germany). DNA plasmid and DANN gel isolation kits were purchased from Qiagen (Hilden, Germany). All restriction enzymes and DNA modifying enzymes were ordered from New England Biolabs (Schwalbach, Germany). HiTrapQ (5 ml) was from Pharmacia Biotech (Freiburg, Germany). Vydac C4-RP HPLC columns (214TP54: 300 Å, 5 μm, 4.6×250 mm; 214TP1022: 300 Å, 10 μm, 22×250 mm) were from Promochem (Wesel, Germany). Fluorogenic substrate P218 was purchased from Polypeptide Laboratories (Wolfenbüttel, Germany). Ultrapure urea was purchased from Schwarz-Mann (Cleveland, Ohio). Ready-to-use NuPAGE 10% Bis-Tris Polyacrylamide SDS-PAGE gels and NuPAGE 20×MOPS running buffer were obtained from Novex (Frankfurt/Main, Germany) 10% AMPA and all other chemicals were from Sigma (Deisenhofen, Germany). […]"}, "MMP-9 (Gelatinase B)": {"target": "T2, MMP-9 (Gelatinase B) (Homo sapiens, UniProt P14780)", "T2 construct": "polymorphonuclear leukocytes (PMN) preparations are isolated as described above from 3 or more units of freshly drawn whole blood; from tissue; host or cells: polymorphonuclear leukocytes from whole blood, stimulated with PMA; supernatant purified", "T2 sequence (P14780 94-707)": "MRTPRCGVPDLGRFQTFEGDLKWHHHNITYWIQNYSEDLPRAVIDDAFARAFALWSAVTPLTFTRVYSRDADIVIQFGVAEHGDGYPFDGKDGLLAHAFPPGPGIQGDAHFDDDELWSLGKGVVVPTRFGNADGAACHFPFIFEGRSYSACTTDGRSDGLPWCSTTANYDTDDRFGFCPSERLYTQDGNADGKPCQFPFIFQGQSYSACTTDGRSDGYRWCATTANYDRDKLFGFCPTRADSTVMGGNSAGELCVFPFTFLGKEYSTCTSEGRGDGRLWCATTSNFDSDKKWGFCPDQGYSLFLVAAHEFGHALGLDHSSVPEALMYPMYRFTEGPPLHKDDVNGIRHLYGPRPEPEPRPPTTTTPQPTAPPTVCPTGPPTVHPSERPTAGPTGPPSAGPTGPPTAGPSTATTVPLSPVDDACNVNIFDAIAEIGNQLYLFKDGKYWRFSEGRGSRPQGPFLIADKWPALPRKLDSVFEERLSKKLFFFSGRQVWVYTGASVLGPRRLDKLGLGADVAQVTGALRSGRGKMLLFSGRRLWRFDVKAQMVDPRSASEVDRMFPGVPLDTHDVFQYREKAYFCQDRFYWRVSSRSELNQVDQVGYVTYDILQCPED", "assay": "P218 quenched fluorescence assay, MMP-9", "format": "biochemical", "conditions": "read-out: Potency Ki vs. MMP-9", "from_the_text": "as §1\nas §2, with “Test compounds (10 mM in DMSO) are diluted in assay buffer at an initial concentration of 0.3-1000 nM. These are diluted to a final concentration in the assay from 0.03 nM to 100 nM. The reaction is initiated by the addition of substrate at a final concentration of 20 μM.” left out\nas §3, with “[I]0 is equal to IC50 when vi is half v0, so that: IC50=0.5×[E]0+Ki apparent” left out\nIC50's are determined at each enzyme concentration using Xlfit software. […]"}}, "data": [{"smiles": "O=C(CC(CCN1C(=O)c2ccccc2C1=O)C(=O)O)c1ccc(-c2ccc(Cl)cc2)cc1", "note": "(single isomer, unassigned; (+)) [Example 4, (+)-4-(4′-Chloro[1,1′-biphenyl]4-yl)-2-[2-(1,3-dioxo-1,3-dihydro-2H-isoindol-2-yl)ethyl]-4-oxobutanoic acid]", "values": [{"measurement": "Ki", "setting": "[1]", "value": 0.3, "unit": "nM"}, {"measurement": "Ki", "setting": "MMP-9 (Gelatinase B)", "value": 0.7, "unit": "nM"}]}, {"smiles": "CCOc1ccc(-c2ccc(C(=O)CC(CCN3C(=O)c4ccccc4C3=O)C(=O)O)cc2)cc1", "note": "(single isomer, unassigned; (+)) [Example 2, (+)-2-[2-(1,3-Dioxo-1,3-dihydro-2H-isoindol-2-yl)ethyl]-4-(4′-ethoxy[1,1′-biphenyl]-4-yl)-4-oxobutanoic acid]", "values": [{"measurement": "Ki", "setting": "[1]", "value": 0.03, "unit": "nM"}, {"measurement": "Ki", "setting": "MMP-9 (Gelatinase B)", "value": 1.2, "unit": "nM"}]}]}
